This note sets out measurements from ChEMBL document CHEMBL1154225, “Design and synthesis of bile acid-based amino sterols as antimicrobial agents” (Bioorg Med Chem Lett, 2009).

What all share (assay type): functional, organism-based
For one assay, the system named is Pseudomonas aeruginosa. Nature of the assay: Antibacterial activity against Pseudomonas aeruginosa ATCC BAA-427 after 24 hrs by NCCLS method.
The test system of the next assay is Staphylococcus aureus. Nature of the assay: Antibacterial activity against Staphylococcus aureus ATCC 25923 after 24 hrs by NCCLS method.
A further assay concerns Candida albicans. Nature of the assay: Antifungal activity against Candida albicans after 48 hrs by microbroth dilution technique. (Broth dilution looks for growth in wells or tubes with falling amounts of substance.)
The next assay relates to Cryptococcus neoformans. Nature of the assay: Antifungal activity against Cryptococcus neoformans after 72 hrs by microbroth dilution technique.
The next assay concerns Sporothrix schenckii. Nature of the assay: Antifungal activity against Sporothrix schenckii after 72 hrs by microbroth dilution technique.
Assay [1] relates to Trichophyton mentagrophytes. As to the kind of experiment: Antifungal activity against Trichophyton mentagrophytes after 96 hrs by microbroth dilution technique.
Another assay concerns Aspergillus fumigatus. As to the kind of experiment: Antifungal activity against Aspergillus fumigatus AF-27 after 72 hrs by microbroth dilution technique. Particulars: AF-27, 72 h; call rule not given here.
The test system of a further assay is Candida parapsilosis. Nature of the assay: Antifungal activity against Candida parapsilosis ATCC 22019 after 48 hrs by microbroth dilution technique. As to conditions: Lodderomyces parapsilosis, ATCC 22019, 48 h.
The subject of another assay is Escherichia coli. Nature of the assay: Antibacterial activity against Escherichia coli ATCC 9637 after 24 hrs by NCCLS method.
The test system of a further assay is Klebsiella pneumoniae. As to the kind of experiment: Antibacterial activity against Klebsiella pneumoniae ATCC 27736 after 24 hrs by NCCLS method.
Where [2] appears, read: Pseudomonas aeruginosa, ATCC BAA-427, 24 h.
[3] abbreviates: Escherichia coli, ATCC 9637, 24 h.
Where [4] appears, read: Klebsiella pneumoniae, ATCC 27736, 24 h.
Setting [5] is: Klebsiella pneumoniae, ATCC 27736, 24 h, read-out: IC50.
Setting [6] is: Escherichia coli, ATCC 9637, 24 h, read-out: IC50.
Setting [7] is: Pseudomonas aeruginosa, ATCC BAA-427, 24 h, read-out: IC50.

In brackets after ≈: the same amount, converted by molar mass. A value given as a limit tells only on which side of the number the result lay.

The term MIC denotes the lowest concentration found to suppress growth. The low end stands for inhibition by little substance, the high end for a need for much substance. Take `COC(=O)CC[C@@H](C)[C@H]1CC[C@H]2[C@@H]3CC[C@@H]4C[C@](O)(CN=[N+]=[N-])CC[C@]4(C)[C@H]3C[C@H](O)[C@]12C`: the MIC is above 50 µg/mL in the assay on Pseudomonas aeruginosa (setting [2]); above 50 µg/mL against Staphylococcus aureus (ATCC 25923, 24 h); above 50 µg/mL against Candida albicans; above 50 µg/mL with Cryptococcus neoformans; above 50 µg/mL against Sporothrix schenckii; above 50 µg/mL in assay [1]. In addition, the minimum inhibitory concentration (MIC) in the assay on Aspergillus fumigatus, against Candida parapsilosis and against Escherichia coli (setting [3]) was above 50 µg/mL in each case.

Usually IC50 stands for the concentration that inhibits the measured activity by half. With `COC(=O)CC[C@@H](C)[C@H]1CC[C@H]2[C@@H]3[C@H](O)C[C@@H]4C[C@](O)(CNCCN)CC[C@]4(C)[C@H]3C[C@H](O)[C@]12C`, the IC50 result in the assay with Pseudomonas aeruginosa is “Not Active”; in the assay on Staphylococcus aureus (ATCC 25923, 24 h), 4.12 µg/mL (≈ 8.33 µM); in the assay with Klebsiella pneumoniae (setting [5]), 4.68 µg/mL (≈ 9.46 µM); in the assay with Candida albicans, 24 µg/mL (≈ 48.6 µM); in the assay with Cryptococcus neoformans, 14.6 µg/mL (≈ 29.4 µM); with Sporothrix schenckii, 18.3 µg/mL (≈ 37 µM). Further, the IC50 in assay [1] was found to be 6.25 µg/mL (≈ 12.6 µM); with Aspergillus fumigatus, 50 µg/mL (≈ 101 µM); in the assay on Candida parapsilosis, 16.4 µg/mL (≈ 33.2 µM); in the assay on Escherichia coli (setting [6]) it was 17.2 µg/mL (≈ 34.8 µM). The MIC in the assay on Pseudomonas aeruginosa (setting [2]) was determined as 50 µg/mL (≈ 101 µM); in the assay on Staphylococcus aureus (ATCC 25923, 24 h) it was 6.25 µg/mL (≈ 12.6 µM); against Klebsiella pneumoniae (setting [4]), 6.25 µg/mL (≈ 12.6 µM); in the assay on Candida albicans, 25 µg/mL (≈ 50.5 µM); against Cryptococcus neoformans, 25 µg/mL (≈ 50.5 µM); in the assay with Sporothrix schenckii, 25 µg/mL (≈ 50.5 µM). Moreover, the MIC amounted to 6.25 µg/mL (≈ 12.6 µM) in [1], 50 µg/mL (≈ 101 µM) in the assay with Aspergillus fumigatus, 25 µg/mL (≈ 50.5 µM) against Candida parapsilosis and 25 µg/mL (≈ 50.5 µM) against Escherichia coli (setting [3]).

GENTAMICIN: the MIC is 25 µg/mL against Pseudomonas aeruginosa, 6.25 µg/mL with Staphylococcus aureus, 0.78 µg/mL in the assay with Klebsiella pneumoniae and 0.18 µg/mL against Escherichia coli.

Turning to `COC(=O)CC[C@@H](C)[C@H]1CC[C@H]2[C@@H]3CC[C@@H]4C[C@](O)(CN)CC[C@]4(C)[C@H]3C[C@H](O)[C@]12C`, the MIC against Pseudomonas aeruginosa (setting [2]) was above 50 µg/mL; in the assay on Staphylococcus aureus (ATCC 25923, 24 h), 25 µg/mL (≈ 57.4 µM); against Klebsiella pneumoniae (setting [4]) it was 50 µg/mL (≈ 115 µM); against Candida albicans, 50 µg/mL (≈ 115 µM); in the assay on Cryptococcus neoformans it was 50 µg/mL (≈ 115 µM); in the assay on Sporothrix schenckii, 25 µg/mL (≈ 57.4 µM). In addition, the MIC in [1] was 25 µg/mL (≈ 57.4 µM); with Aspergillus fumigatus, 50 µg/mL (≈ 115 µM); in the assay on Candida parapsilosis it was above 50 µg/mL; against Escherichia coli (setting [3]), above 50 µg/mL. The half-inhibitory concentration (IC50) is above 50 µg/mL in the assay with Pseudomonas aeruginosa (setting [7]); 14.6 µg/mL (≈ 33.4 µM) in the assay on Staphylococcus aureus (ATCC 25923, 24 h); “Not Active” with Klebsiella pneumoniae; 50 µg/mL (≈ 115 µM) in the assay on Candida albicans; 50 µg/mL (≈ 115 µM) in the assay on Cryptococcus neoformans; 12.6 µg/mL (≈ 29 µM) with Sporothrix schenckii. Further, the IC50 in [1] was 24.9 µg/mL (≈ 57.1 µM); in the assay with Aspergillus fumigatus, 50 µg/mL (≈ 115 µM); with Candida parapsilosis it was above 50 µg/mL; in the assay with Escherichia coli (setting [6]), above 50 µg/mL.

Turning to `COC(=O)CC[C@@H](C)[C@H]1CC[C@H]2[C@@H]3CC[C@@H]4C[C@H](O)CC[C@]4(C)[C@H]3C[C@H](O)[C@]12C` [METHYL DEOXYCHOLATE], the MIC was above 50 µg/mL against Pseudomonas aeruginosa (setting [2]); above 50 µg/mL in the assay on Staphylococcus aureus (ATCC 25923, 24 h); above 50 µg/mL against Candida albicans; above 50 µg/mL in the assay on Cryptococcus neoformans; above 50 µg/mL in the assay with Sporothrix schenckii; above 50 µg/mL in assay [1]. Also, the MIC against Aspergillus fumigatus, against Candida parapsilosis and in the assay on Escherichia coli (setting [3]) was above 50 µg/mL in each case.

As for `COC(=O)CC[C@@H](C)[C@H]1CC[C@H]2[C@@H]3[C@H](O)C[C@@H]4C[C@](O)(CN=[N+]=[N-])CC[C@]4(C)[C@H]3C[C@H](O)[C@]12C`, the MIC against Pseudomonas aeruginosa (setting [2]) was above 50 µg/mL; against Staphylococcus aureus (ATCC 25923, 24 h), above 50 µg/mL; against Candida albicans it was above 50 µg/mL; in the assay on Cryptococcus neoformans, above 50 µg/mL; against Sporothrix schenckii it was above 50 µg/mL; in assay [1], above 50 µg/mL. Besides, the MIC in the assay with Aspergillus fumigatus, in the assay with Candida parapsilosis and with Escherichia coli (setting [3]) was above 50 µg/mL in each case.

With `COC(=O)CC[C@@H](C)[C@H]1CC[C@H]2[C@@H]3CC[C@@H]4C[C@](O)(CNCCN)CC[C@]4(C)[C@H]3C[C@H](O)[C@]12C`, the IC50 entry is “Not Active” in the assay with Pseudomonas aeruginosa; 5.14 µg/mL (≈ 10.7 µM) in the assay with Staphylococcus aureus (ATCC 25923, 24 h); 5.21 µg/mL (≈ 10.9 µM) in the assay with Klebsiella pneumoniae (setting [5]); 25 µg/mL (≈ 52.3 µM) with Candida albicans; 17.2 µg/mL (≈ 36 µM) in the assay on Cryptococcus neoformans; 3.36 µg/mL (≈ 7.02 µM) in the assay with Sporothrix schenckii. Moreover, the IC50 is 6.25 µg/mL (≈ 13.1 µM) in [1], 8.14 µg/mL (≈ 17 µM) in the assay with Aspergillus fumigatus, 18.4 µg/mL (≈ 38.4 µM) with Candida parapsilosis and “Not Active” in the assay on Escherichia coli. The MIC with Pseudomonas aeruginosa (setting [2]) was 50 µg/mL (≈ 104 µM); in the assay with Staphylococcus aureus (ATCC 25923, 24 h), 6.25 µg/mL (≈ 13.1 µM); against Klebsiella pneumoniae (setting [4]) it was 6.25 µg/mL (≈ 13.1 µM); in the assay on Candida albicans, above 50 µg/mL; against Cryptococcus neoformans, 25 µg/mL (≈ 52.2 µM); against Sporothrix schenckii it was 12.5 µg/mL (≈ 26.1 µM). Besides, the MIC in assay [1] was 6.25 µg/mL (≈ 13.1 µM); in the assay on Aspergillus fumigatus it was 12.5 µg/mL (≈ 26.1 µM); with Candida parapsilosis, 25 µg/mL (≈ 52.2 µM); in the assay on Escherichia coli (setting [3]), 50 µg/mL (≈ 104 µM).

As to `COC(=O)CC[C@@H](C)[C@H]1CC[C@H]2[C@@H]3[C@H](O)C[C@@H]4C[C@H](O)CC[C@]4(C)[C@H]3C[C@H](O)[C@]12C` [CHOLIC ACID, METHYL ESTER], the MIC was above 50 µg/mL in the assay on Pseudomonas aeruginosa (setting [2]); above 50 µg/mL in the assay with Staphylococcus aureus (ATCC 25923, 24 h); above 50 µg/mL against Candida albicans; above 50 µg/mL against Cryptococcus neoformans; above 50 µg/mL against Sporothrix schenckii; above 50 µg/mL in assay [1]. Also, the MIC in the assay on Aspergillus fumigatus, against Candida parapsilosis and in the assay on Escherichia coli (setting [3]) was above 50 µg/mL each time.

Regarding `OC(Cn1cncn1)(Cn1cncn1)c1ccc(F)cc1F` [FLUCONAZOLE], the minimum inhibitory concentration (MIC) is 0.5 µg/mL (≈ 1.63 µM) in the assay on Candida albicans; 1.9 µg/mL (≈ 6.2 µM) in the assay with Cryptococcus neoformans; 2 µg/mL (≈ 6.53 µM) in the assay on Sporothrix schenckii; 1 µg/mL (≈ 3.27 µM) in assay [1]; 2 µg/mL (≈ 6.53 µM) in the assay on Aspergillus fumigatus; 1 µg/mL (≈ 3.27 µM) in the assay on Candida parapsilosis.

In the case of `COC(=O)CC[C@@H](C)[C@H]1CC[C@H]2[C@@H]3[C@H](O)C[C@@H]4C[C@](O)(CN)CC[C@]4(C)[C@H]3C[C@H](O)[C@]12C`, the minimal inhibitory concentration (MIC) is above 50 µg/mL with Pseudomonas aeruginosa (setting [2]); 25 µg/mL (≈ 55.4 µM) against Staphylococcus aureus (ATCC 25923, 24 h); 25 µg/mL (≈ 55.4 µM) with Klebsiella pneumoniae (setting [4]); 50 µg/mL (≈ 111 µM) with Candida albicans; above 50 µg/mL against Cryptococcus neoformans; 50 µg/mL (≈ 111 µM) in the assay on Sporothrix schenckii. In addition, the MIC is 25 µg/mL (≈ 55.4 µM) in [1], above 50 µg/mL in the assay on Aspergillus fumigatus, above 50 µg/mL against Candida parapsilosis and above 50 µg/mL against Escherichia coli (setting [3]). Moreover, the half-inhibitory concentration (IC50) in the assay on Pseudomonas aeruginosa (setting [7]) was above 50 µg/mL; with Staphylococcus aureus (ATCC 25923, 24 h) it was 18.4 µg/mL (≈ 40.8 µM); with Klebsiella pneumoniae (setting [5]), 18.4 µg/mL (≈ 40.8 µM); with Candida albicans, above 50 µg/mL; with Cryptococcus neoformans, above 50 µg/mL; in the assay with Sporothrix schenckii, 50 µg/mL (≈ 111 µM). The IC50 is 21.4 µg/mL (≈ 47.4 µM) in [1], above 50 µg/mL with Aspergillus fumigatus, above 50 µg/mL in the assay with Candida parapsilosis and above 50 µg/mL with Escherichia coli (setting [6]).
